Source: US3943154A, “Acylamides of beta-cyano-ethenesulfonyl substituted aminoarenes” (Sanitized Incorporated, priority 1973, dated 1976)
≈ marks a conversion by molar mass, not a printed value.

Tests used:
[1] = system: Aspergillus niger ATCC 6257; assay: agar incorporation test, antifungal activity; assay type: cell-based; settings: Aspergillus niger, ATCC6257, 96 h, lowest concentration showing no growth or sporulation, four days at 28° C, read-out: Antifungal Activity A. niger, minimum inhibitory concentration
Description: The anti-fungal activity of the test compounds was determined employing the "agar incorporation" technique, utilizing spores from Aspergillus niger ATCC 6257 as a representative organism. Test solutions were prepared as described above in acetone or dimethylsulfoxide. A source of carbon agar such as Mycophil Agar was used. The agar was melted and cooled and placed in a constant temperature water bath at 45° C + 3° C. About 13-14 ml of the agar was then poured into a sterile Petri dish, the required amount of test solution to give the desired concentration immediately added thereto, and the dish rotated and swirled by hand to obtain a uniform mixture before the agar hardened.
The hardened plates were inoculated with the test organism by fishing spores from a 7-14 day old slant with the inocculating needle and spotting the spores on the plates, usually in several places. The inoculated plates were incubated for four days in an incubator maintained at 28° C +2° C and with a relative humidity of 95%+.
The lowest concentration of each test compound showing no growth or sporulation of the test organism was taken as the minimum inhibitory concentration and is reported in the following tabulation.
(§1) The button assay and agar incorporation tests were also utilized to determine the corresponding inhibitory concentrations of various control materials, viz., the following well known commercial antimicrobials and fungicides: hexachlorophene, tribromosalicylanilide, trichlorocarbanilide,Captan (N-(trichloromethylthio)4cyclohexene-1,2-dicarboximide) and Zineb (zinc ethylenebis[dithiocarbamate]). The minimum inhibitory concentration of each of the various control materials against the respective organisms is indicated in Table IV below: […]

[2] = system: Bacillus subtilis ATCC 9525; assay: button assay, antibacterial activity; assay type: cell-based; settings: Bacillus subtilis, ATCC9525, lowest concentration showing a clear zone of inhibition, 24 hours at 37° C, read-out: Antibacterial Activity B.subtilis, minimum inhibitory concentration
Description: (§2) In the test program, the minimum inhibitory concentrations of the respective test compounds against various Gram positive and Gram negative bacteria were determined, employing the "button assay" method. The test organisms utilized were standard cultures of Staphylococcus aureus ATCC 6538 DR, a penicillin resistant Gram positive bacterium; Bacillus subtilis ATCC 9525, a spore-forming Gram positive bacillus; and Salmonella typhosa ATCC 6539, a Gram negative bacterium.
(§3) In the tests the respective compounds were dissolved in a suitable solvent, usually acetone or dimethylsulfoxide, to give solutions with known concentrations of active material. The highest concentration was ordinarily 1000 ppm (parts per million) [0.1%], and dilutions were made in suitable steps down to 1 ppm. Penicillin test buttons of filter paper having a diameter of 13 mm (socalled "Peniassay" buttons) were added to each solution within a test tube and left submerged for five minutes. They were then removed and left to dry on paper towels under sterile conditions. A laminar flow sterile cabinet equipped with ultraviolet lamps operating under positive air pressure was utilized for this purpose.
(§4) An 18-24 hour old nutrient broth culture (standard 1.5% nutrient agar) prepared in conventional manner from a slant and having passed through at least three consecutive daily transfers was used for inoculation. Melted and cooled sterile agar (45° C) was inoculated with the respective broth cultures by addition of 20 ml broth per liter of agar. The agar was then dispensed into Petri dishes (20 ml per plate) under sterile conditions and allowed to harden.
(§5) The test buttons were placed on the surface of the hardened agar and the plates incubated for 24 hours at 37° C. Where, on inspection, a clear zone of inhibition appeared around the button, inhibition of growth was presumed. Where growth touched the button there was no inhibition. For each of the test compounds, the lowest concentration showing a clear zone is reported as the inhibitory concentration in the following table.
as §1

[3] = system: Staphylococcus aureus ATCC 6538 DR; assay: button assay, antibacterial activity; assay type: cell-based; settings: Staphylococcus aureus, ATCC6538, 24 h, read-out: Antibacterial Activity S.aureus, minimum inhibitory concentration
Description: as §2, §3, §4
as §5, with “table. […]” for “table.”

[4] = system: Salmonella typhosa ATCC 6539; assay: button assay, antibacterial activity; assay type: cell-based; settings: Salmonella enterica, 24 h, read-out: Antibacterial Activity S.typhosa, minimum inhibitory concentration
Description: as §2
as §3, with “The” for “In the tests the respective compounds were dissolved in a suitable solvent, usually acetone or dimethylsulfoxide, to give solutions with known concentrations of active material. The”
as §4
as §5, with “table. […]” for “table.”

[5] = stability of the recovered product; assay type: physicochemical; settings: recovered by filtration and drying at low temperature under vacuum
Description: 10.4 g (0.05 mol) of 2-cyanovinyl 4-aminophenyl sulfone is dissolved in 100 ml of acetone and the solution cooled to 0° C. […] of phosphorus trichloride dissolved in 20 ml of acetone is added dropwise with stirring. After about 40 minutes the reaction mixture is poured into ice water with vigorous stirring. The intermediate initially formed hydrolyzes easily upon the addition of water to form di-4-(2-cyanoethenesulfonyl)anilidophosphine oxide, which can be recovered by filtration and drying at low temperature under vacuum.

[6] = solubility of the product in solvents; assay type: physicochemical
Description: Naphthalene-2,6-disulfonyl chloride (6.2 g, 0.02 mol) is dissolved in 100 ml dimethylformamide; to the solution is added, in 2-3 portions over about a minute, a solution of 3-(4-aminobenzenesulfonyl)acrylonitrile in 50 ml dimethylformamide containing 6 ml triethylamine (8.4 g, 0.04 mol). The temperature rises to 35° C by the exothermic reaction. The reaction mixture is maintained at room temperature for 2 hours and filtered to separate triethylamine hydrochloride therefrom. Addition of chloroform to the filtrate precipitates the product which, after washing with ethanol/water and drying, is in the form of a slightly off-white powder having a melting point of 312° C. […] It is naphthalene-2,6-bis-sulfon-[4-(2-cyanoethenesulfonyl)anilide]: ##SPC42##

Work on `N#CC=CS(=O)(=O)c1ccc(N[PH](=O)Nc2ccc(S(=O)(=O)C=CC#N)cc2)cc1` [Example 57, di-4-(2-cyanoethenesulfonyl)anilidophosphine oxide] yielded an MIC [1] of 100 µg/mL (≈ 216 µM), an MIC [2] of 20 µg/mL (≈ 43.2 µM) and an MIC [3] of 20 µg/mL (≈ 43.2 µM). The MIC [4] was 20 µg/mL (≈ 43.2 µM) and the “stability of the product” value [5] was “somewhat unstable”.

`N#CC=CS(=O)(=O)c1ccc(NS(=O)(=O)c2ccc3cc(S(=O)(=O)Nc4ccc(S(=O)(=O)C=CC#N)cc4)ccc3c2)cc1` [Example 37, naphthalene-2,6-bis-sulfon-[4-(2-cyanoethenesulfonyl)anilide]] showed an MIC [1] of 1000 µg/mL (≈ 1500 µM), an MIC [2] of 50 µg/mL (≈ 74.8 µM) and an MIC [3] of 20 µg/mL (≈ 29.9 µM). For the same compound, the MIC [4] was 20 µg/mL (≈ 29.9 µM), the “solubility in dimethylformamide and dimethylsulfoxide” value ([6]; dimethylformamide, dimethylsulfoxide) was “soluble” and the “solubility in ethanol, chloroform and acetone” value ([6]; ethanol, chloroform, acetone) was “almost insoluble”.

Compound `N#CC=CS(=O)(=O)c1ccc(N)cc1` [3-(4-aminobenzenesulfonyl)acrylonitrile, reference compound] has an MIC [1] of 300 µg/mL (≈ 1440 µM), an MIC [2] of 20 µg/mL (≈ 96 µM) and an MIC [3] of 20 µg/mL (≈ 96 µM). For the same compound, the MIC [4] was 20 µg/mL (≈ 96 µM).

In the case of `Cc1ccc(S(=O)(=O)C=CC#N)cc1NS(=O)(=O)c1ccccc1` [Example 12, 3-(3-benzenesulfonamido-4-methylbenzenesulfonyl)acrylonitrile], the MIC [1] is reported as > 1000 µg/mL, the MIC [2] is reported as 100 µg/mL (≈ 276 µM) and the MIC [3] is reported as 100 µg/mL (≈ 276 µM). For the same compound, the MIC [4] was 100 µg/mL (≈ 276 µM).

With `N#CC=CS(=O)(=O)c1ccc(NSc2ccc([N+](=O)[O-])cc2)cc1` [Example 43, 3-[4-(4-nitrobenzenesulfenamido)benzenesulfonyl]acrylonitrile] the MIC [1] was 300 µg/mL (≈ 830 µM), the MIC [2] was 5 µg/mL (≈ 13.8 µM) and the MIC [3] was 5 µg/mL (≈ 13.8 µM). It also gave an MIC [4] of 10 µg/mL (≈ 27.7 µM).
